This is an account of results in patent EP4806891A1 (Kangbaida (Sichuan) Biotechnology Co., Ltd., priority 2023, dated 2025).

The target of the assay is T1, HEK-Blue-hTLR8 cells (Homo sapiens, UniProt Q9NR97).
T1 construct: expressed in transfected cells; host or cells: HEK-Blue-hTLR8 cells (HEK293-derived reporter line)
T1 sequence (Q9NR97 27-1041): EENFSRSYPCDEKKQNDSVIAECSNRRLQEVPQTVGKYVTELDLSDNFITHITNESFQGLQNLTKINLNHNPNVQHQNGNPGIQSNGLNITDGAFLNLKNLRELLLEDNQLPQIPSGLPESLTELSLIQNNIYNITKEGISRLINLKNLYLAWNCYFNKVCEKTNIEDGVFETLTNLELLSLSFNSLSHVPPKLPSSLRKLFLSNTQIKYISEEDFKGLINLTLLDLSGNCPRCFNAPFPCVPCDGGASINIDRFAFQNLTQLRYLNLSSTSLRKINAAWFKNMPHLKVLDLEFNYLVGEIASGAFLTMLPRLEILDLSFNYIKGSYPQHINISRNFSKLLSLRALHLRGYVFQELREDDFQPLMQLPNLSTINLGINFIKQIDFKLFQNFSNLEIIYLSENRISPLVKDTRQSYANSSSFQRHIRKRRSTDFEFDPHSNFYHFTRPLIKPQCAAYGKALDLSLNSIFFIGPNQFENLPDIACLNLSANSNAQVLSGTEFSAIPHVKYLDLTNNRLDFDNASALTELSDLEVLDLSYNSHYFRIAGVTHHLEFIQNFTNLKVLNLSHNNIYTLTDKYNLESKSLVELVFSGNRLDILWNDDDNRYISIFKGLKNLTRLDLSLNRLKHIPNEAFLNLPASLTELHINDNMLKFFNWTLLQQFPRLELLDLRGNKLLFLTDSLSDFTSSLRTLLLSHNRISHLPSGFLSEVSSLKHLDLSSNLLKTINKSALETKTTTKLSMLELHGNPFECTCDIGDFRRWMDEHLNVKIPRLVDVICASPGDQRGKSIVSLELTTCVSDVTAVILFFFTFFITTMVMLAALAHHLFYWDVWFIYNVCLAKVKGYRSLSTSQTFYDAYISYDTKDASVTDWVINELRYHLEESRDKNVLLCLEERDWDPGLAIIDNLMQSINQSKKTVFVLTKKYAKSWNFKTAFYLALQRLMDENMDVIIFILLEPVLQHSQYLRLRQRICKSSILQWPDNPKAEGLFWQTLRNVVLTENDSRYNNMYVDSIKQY
Briefly: HEK-Blue-hTLR8 cell inhibition assay. Format: cell-based. The settings on record: R848 3 µM, 16 h, OD 620 nm, read-out: TLR8 IC50. The gist of the method: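 Cells were pre-incubated 4 h, then co-treated 16 h at 37 °C with compound (10 doses, 0.5–10000 nM final) plus R848 (0.8 µM for TLR7, 3 µM for TLR8) or ODN2006 (1 µM, TLR9). Reporter OD620 gave inhibition relative to DMSO blank and agonist-only controls; IC50 came from curve fitting.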

One may read the IC50 as the midpoint of a concentration-inhibition curve.

Consider `N#Cc1ccc(N2C[C@]3(c4nnc(C5(F)CCNC5)o4)C[C@]3(C(F)(F)F)C2)c2cccnc12` (stereo partly drawn) [Compound 46, 5-((1S,5R)-1-(5-(3-fluoropyrrolidin-3-yl)-1,3,4-oxadiazol-2-yl)-5-(trifluoromethyl)-3-azabicyclo[3.1.0]hexan-3-yl)quinoline-8-carbonitrile], for which the IC50 was less than 100 nM. On to `CN1CCC(F)(c2nnc([C@]34CN(c5ccc(C#N)c6ncccc56)C[C@@]3(C(F)(F)F)C4)o2)C1` (stereo partly drawn) [Compound 47, 5-((1S,5R)-1-(5-(3-fluoro-1-methylpyrrolidin-3-yl)-1,3,4-oxadiazol-2-yl)-5-(trifluoromethyl)-3-azabicyclo[3.1.0]hexan-3-yl)quinoline-8-carbonitrile], for which the IC50 is less than 100 nM.

On to `CN1CC(F)(c2nnc([C@]34CN(c5ccc(C#N)c6ncccc56)C[C@@]3(C(F)(F)F)C4)o2)C1` [Compound 49, 5-((1S,5R)-1-(5-(3-fluoro-1-methylazetidin-3-yl)-1,3,4-oxadiazol-2-yl)-5-(trifluoromethyl)-3-azabicyclo[3.1.0]hexan-3-yl)quinoline-8-carbonitrile], for which the half-inhibitory concentration (IC50) is less than 100 nM. Consider `CN1CCC(c2nnc([C@]34CN(c5ccc(C#N)c6ncccc56)C[C@@]3(C(F)(F)F)C4)o2)C(F)C1` (stereo partly drawn) [Compound 50, 5-((1S,5R)-1-(5-(3-fluoro-1-methylpiperidin-4-yl)-1,3,4-oxadiazol-2-yl)-5-(trifluoromethyl)-3-azabicyclo[3.1.0]hexan-3-yl)quinoline-8-carbonitrile], for which the IC50 was less than 100 nM. For `CN(C)CCc1nnc([C@]23CN(c4ccc(C#N)c5ncccc45)C[C@@]2(C(F)(F)F)C3)o1` [Compound 51, 5-((1S,5R)-1-(5-(2-(dimethylamino)ethyl)-1,3,4-oxadiazol-2-yl)-5-(trifluoromethyl)-3-azabicyclo[3.1.0]hexan-3-yl)quinoline-8-carbonitrile], the concentration for half-maximal inhibition (IC50) was less than 100 nM. Take `N#Cc1ccc(N2C[C@]3(c4nnc(C56CCC(N)(CC5)CC6)o4)C[C@]3(C(F)(F)F)C2)c2cccnc12` [Compound 52, 5-((1S,5R)-1-(5-(4-aminobicyclo[2.2.2]octan-1-yl)-1,3,4-oxadiazol-2-yl)-5-(trifluoromethyl)-3-azabicyclo[3.1.0]hexan-3-yl)quinoline-8-carbonitrile]: the half-maximal inhibitory concentration (IC50) was less than 100 nM. Next, `CN(C)C12CCC(c3nnc([C@]45CN(c6ccc(C#N)c7ncccc67)C[C@@]4(C(F)(F)F)C5)o3)(CC1)CC2` [Compound 53, 5-((1S,5R)-1-(5-(4-(dimethylamino)bicyclo[2.2.2]octan-1-yl)-1,3,4-oxadiazol-2-yl)-5-(trifluoromethyl)-3-azabicyclo[3.1.0]hexan-3-yl)quinoline-8-carbonitrile]: less than 100 nM.

Consider `N#Cc1ccc(N2C[C@]3(c4nnc(C56CCC(NC(=O)[C@@H]7COCCN7)(CC5)CC6)o4)C[C@]3(C(F)(F)F)C2)c2cccnc12` [Compound 54, (S)-N-(4-(5-((1S,5R)-3-(8-cyanoquinolin-5-yl)-5-(trifluoromethyl)-3-azabicyclo[3.1.0]hexan-1-yl)-1,3,4-oxadiazol-2-yl)bicyclo[2.2.2]octan-1-yl)morpholine-3-carboxamide], for which the IC50 is less than 100 nM.

For `N#Cc1ccc(N2C[C@]3(c4nnc([C@H]5CN(CC(N)=O)CCO5)o4)C[C@]3(C(F)(F)F)C2)c2cccnc12` [Compound 56, 2-((R)-2-(5-((1S,5R)-3-(8-cyanoquinolin-5-yl)-5-(trifluoromethyl)-3-azabicyclo[3.1.0]hexan-1-yl)-1,3,4-oxadiazol-2-yl)morpholino)acetamide], the half-inhibitory concentration (IC50) is less than 100 nM. Consider `CN1CCC(c2nnc([C@]34CN(c5ccc(C#N)n6ncc(F)c56)C[C@@]3(C(F)(F)F)C4)o2)CC1` [Compound 57, 3-fluoro-4-((1S,5R)-1-(5-(1-methylpiperidin-4-yl)-1,3,4-oxadiazol-2-yl)-5-(trifluoromethyl)-3-azabicyclo[3.1.0]hexan-3-yl)pyrazolo[1,5-a]pyridine-7-carbonitrile], for which the IC50 was less than 100 nM. For `CN1CCC(c2nnc([C@]34CN(c5ccc(C#N)n6nccc56)C[C@@]3(C(F)(F)F)C4)o2)CC1` [Compound 59, 4-((1S,5R)-1-(5-(1-methylpiperidin-4-yl)-1,3,4-oxadiazol-2-yl)-5-(trifluoromethyl)-3-azabicyclo[3.1.0]hexan-3-yl)pyrazolo[1,5-a]pyridine-7-carbonitrile] the value was less than 1000 nM; for `N#Cc1ccc(N2C[C@]3(c4nnc(C5(F)CCNCC5)o4)C[C@]3(C(F)(F)F)C2)c2cccnc12` [Compound 60, 5-((1S,5R)-1-(5-(4-fluoropiperidin-4-yl)-1,3,4-oxadiazol-2-yl)-5-(trifluoromethyl)-3-azabicyclo[3.1.0]hexan-3-yl)quinoline-8-carbonitrile], less than 100 nM; for `CN1CCC(c2nnc([C@]34CN(c5ccc(OC(F)(F)F)c6ncccc56)C[C@@]3(C(F)(F)F)C4)o2)CC1` [Compound 64, 2-(1-methylpiperidin-4-yl)-5-((1S,5R)-5-(trifluoromethyl)-3-(8-(trifluoromethoxy)quinolin-5-yl)-3-azabicyclo[3.1.0]hexan-1-yl)-1,3,4-oxadiazole], less than 100 nM.

`COc1ccc(N2C[C@]3(c4nnc(C5CCN(C)CC5)o4)C[C@]3(C(F)(F)F)C2)c2cccnc12` [Compound 66, 2-((1S,5R)-3-(8-methoxyquinolin-5-yl)-5-(trifluoromethyl)-3-azabicyclo[3.1.0]hexan-1-yl)-5-(1-methylpiperidin-4-yl)-1,3,4-oxadiazole]: the half-inhibitory concentration (IC50) was less than 100 nM. For `CN1CCC(n2cc([C@]34CN(c5ccc(C#N)c6ncccc56)C[C@@]3(C(F)(F)F)C4)nn2)CC1` [Compound 71, 5-((1S,5R)-1-(1-(1-methylpiperidin-4-yl)-1H-1,2,3-triazol-4-yl)-5-(trifluoromethyl)-3-azabicyclo[3.1.0]hexan-3-yl)quinoline-8-carbonitrile] the value was less than 100 nM; for `FC(F)(F)c1ccc(N2C[C@]3(c4nnc(C5CCNCC5)o4)C[C@]3(C(F)(F)F)C2)c2cccnc12` [Compound 75, 2-(piperidin-4-yl)-5-((1S,5R)-5-(trifluoromethyl)-3-(8-(trifluoromethyl)quinolin-5-yl)-3-azabicyclo[3.1.0]hexan-1-yl)-1,3,4-oxadiazole], less than 100 nM. Regarding `FC(F)(F)c1ccc(N2C[C@]3(c4nnc(C5CCN(CC6CC6)CC5)o4)C[C@]3(C(F)(F)F)C2)c2cccnc12` [Compound 76, 2-(1-(cyclopropylmethyl)piperidin-4-yl)-5-((1S,5R)-5-(trifluoromethyl)-3-(8-(trifluoromethyl)quinolin-5-yl)-3-azabicyclo[3.1.0]hexan-1-yl)-1,3,4-oxadiazole], the concentration for half-maximal inhibition (IC50) was less than 100 nM. Consider `NC(=O)CN1CCC(c2nnc([C@]34CN(c5ccc(C(F)(F)F)c6ncccc56)C[C@@]3(C(F)(F)F)C4)o2)CC1` [Compound 77, 2-(4-(5-((1S,5R)-5-(trifluoromethyl)-3-(8-(trifluoromethyl)quinolin-5-yl)-3-azabicyclo[3.1.0]hexan-1-yl)-1,3,4-oxadiazol-2-yl)piperidin-1-yl)acetamide], for which the IC50 was less than 100 nM. For `CN1[C@@H]2CC[C@H]1C[C@H](c1nnc([C@]34CN(c5ccc(C(F)(F)F)c6ncccc56)C[C@@]3(C(F)(F)F)C4)o1)C2` [Compound 79, 2-((1R,3S,5S)-8-methyl-8-azabicyclo[3.2.1]octan-3-yl)-5-((1S,5R)-5-(trifluoromethyl)-3-(8-(trifluoromethyl)quinolin-5-yl)-3-azabicyclo[3.1.0]hexan-1-yl)-1,3,4-oxadiazole], the half-maximal inhibitory concentration (IC50) is less than 100 nM. Regarding `N#Cc1ccc(N2C[C@]3(c4nnc(C5CCNCC5)o4)C[C@]3(C(F)(F)F)C2)c2c(F)cnn12` [Compound 80, 3-fluoro-4-((1S,5R)-1-(5-(piperidin-4-yl)-1,3,4-oxadiazol-2-yl)-5-(trifluoromethyl)-3-azabicyclo[3.1.0]hexan-3-yl)pyrazolo[1,5-a]pyridine-7-carbonitrile], the IC50 is less than 100 nM. Consider `NC12CCC(c3nnc([C@]45CN(c6ccc(C(F)(F)F)c7ncccc67)C[C@@]4(C(F)(F)F)C5)o3)(CC1)CC2` [Compound 81, 4-(5-((1S,5R)-5-(trifluoromethyl)-3-(8-(trifluoromethyl)quinolin-5-yl)-3-azabicyclo[3.1.0]hexan-1-yl)-1,3,4-oxadiazol-2-yl)bicyclo[2.2.2]octan-1-amine], for which the IC50 is less than 100 nM.
